According to patent US20240116912A1, “COMPOUNDS AND METHODS FOR MODULATING FXR” (Terns Pharmaceuticals, Inc., priority 2020, published 2024):
Where “and” joins values, the source holds several entries; their conditions need not be identical. Equal entries are not always repeated.

What was measured:
[1] = molecular target: ligand binding domain (LBD) of recombinant human FXR (Homo sapiens (Human), UniProt Q96RI1); experiment: FXR cell free coactivator (SRC-1) recruitment assay, TR-FRET; conditions: FXR LBD (amino acids 244-476) with labeled SRC-1 domain, 25° C. for 60 minutes, activity relative to CDCA maximum; read-out: EC50 FXR- Biochemical TR-FRET/μM
Procedure: A cell free coactivator recruitment assay was developed for FXR, to measure the functional potency of novel FXR compounds. In this assay, novel FXR compounds were bound to the ligand binding domain (LBD) of recombinant human FXR. The ability of this liganded homodimeric complex to recruit the co-activator protein steroid receptor coactivator 1 (SRC-1) was measured using Time-Resolved Fluorescence Resonance Energy Transfer (TR-FRET).
The LBD of human FXR (amino acids 244-476) was cloned into an expression vector for protein expression in SF9 insect cells. Purified FXR LBD was incubated in TR-FRET coregulator buffer G (Eurofins) with test compounds (0-10 micromolar) and a labeled nuclear receptor interaction domain of SRC-1 at 25° C. for 60 minutes (final DMSO vehicle concentration was 1.2%). Assays were analyzed using an Envision TR-FRET reader (PerkinElmer Life and Analytical Sciences). Compound activity at each concentration was defined as a percentage of the maximal activity of the natural FXR ligand agonist chenodeoxycholic acid (CDCA) generating a dose response curve.

[2] = molecular target: full length human FXR protein (Homo sapiens (Human), UniProt Q96RI1); experiment: FXR cellular assay (FXR-SRCP β-gal enzyme fragment complementation in CHO-K1 cells, chemiluminescence); format: cell-based; conditions: CHO-K1 cells with SRCP-EA and ProLink-labeled FXR, 0-10 micromolar compound, 37° C. for 6h, read-out: EC50 FXR-cell Luminescence/
Description: A cell based FXR assay was used to detect protein-protein interactions between an activated (ligand-bound), full length human FXR protein and a nuclear fusion protein containing a Steroid Receptor Coactivator Peptide (SCRP) domain. In this approach, two weakly complementing fragments of the 3-gal enzyme were expressed within stably transfected Chinese Hamster Ovary (CHO-K1) cells. The complementing fragments of the 3-gal enzyme (ProLink, PK; and Enzyme Acceptor, EA) were translationally fused to the C-terminus of a full-length FXR and to the SRCP, respectively. Complementation was driven by the protein-protein interaction between SRCP-EA and a ProLink-labeled FXR. Upon FXR-SRCP binding, the two fragments of 3-gal complement, forming a functional enzyme capable of hydrolyzing a substrate molecule and generating a chemiluminescent signal.
CHO-K1 cells containing SRCP-EA and ProLink-labeled FXR were plated in 384-well microplates and incubated at 37° C. overnight. A positive control FXR agonist, GW4064 (0-10 micromolar), or test compounds (0-10 micromolar) were added to plated cells and incubated at 37° C. for 6h (final DMSO vehicle concentration was 1%). The assay signal was generated by addition of 50% (v/v) detection reagent (19:5:1, cell assay buffer: substrate reagent 1: substrate reagent 2, DiscoverX) followed by incubation for 1h at ambient room temperature. Microplates were analyzed using an Envision reader (PerkinElmer Life and Analytical Sciences, Signal=chemiluminescence).

Chain of full length human FXR protein (Q96RI1 whole entry, the tested form may be a part): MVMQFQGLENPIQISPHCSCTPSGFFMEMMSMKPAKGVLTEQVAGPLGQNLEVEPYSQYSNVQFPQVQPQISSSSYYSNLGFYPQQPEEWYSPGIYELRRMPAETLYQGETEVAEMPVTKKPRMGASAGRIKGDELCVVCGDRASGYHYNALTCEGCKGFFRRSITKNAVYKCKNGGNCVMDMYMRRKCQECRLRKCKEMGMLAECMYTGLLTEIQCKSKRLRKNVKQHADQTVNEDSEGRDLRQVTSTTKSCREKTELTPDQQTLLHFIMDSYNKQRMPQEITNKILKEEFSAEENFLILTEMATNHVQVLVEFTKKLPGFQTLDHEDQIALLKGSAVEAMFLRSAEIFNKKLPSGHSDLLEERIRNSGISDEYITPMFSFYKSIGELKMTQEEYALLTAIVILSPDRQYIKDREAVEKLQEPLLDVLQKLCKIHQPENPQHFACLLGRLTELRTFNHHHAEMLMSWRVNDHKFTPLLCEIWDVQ
Chain of ligand binding domain (LBD) of recombinant human FXR (Q96RI1 254-486): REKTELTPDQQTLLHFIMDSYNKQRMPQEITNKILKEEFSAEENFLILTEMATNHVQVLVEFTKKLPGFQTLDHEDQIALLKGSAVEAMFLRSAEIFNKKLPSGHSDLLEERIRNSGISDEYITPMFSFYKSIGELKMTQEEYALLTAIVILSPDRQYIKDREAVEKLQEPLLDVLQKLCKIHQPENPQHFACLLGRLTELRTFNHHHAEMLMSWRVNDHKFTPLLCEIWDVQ
Chain of ligand binding domain (LBD) of recombinant human FXR (Q15788 whole entry partner, the tested form may be a part): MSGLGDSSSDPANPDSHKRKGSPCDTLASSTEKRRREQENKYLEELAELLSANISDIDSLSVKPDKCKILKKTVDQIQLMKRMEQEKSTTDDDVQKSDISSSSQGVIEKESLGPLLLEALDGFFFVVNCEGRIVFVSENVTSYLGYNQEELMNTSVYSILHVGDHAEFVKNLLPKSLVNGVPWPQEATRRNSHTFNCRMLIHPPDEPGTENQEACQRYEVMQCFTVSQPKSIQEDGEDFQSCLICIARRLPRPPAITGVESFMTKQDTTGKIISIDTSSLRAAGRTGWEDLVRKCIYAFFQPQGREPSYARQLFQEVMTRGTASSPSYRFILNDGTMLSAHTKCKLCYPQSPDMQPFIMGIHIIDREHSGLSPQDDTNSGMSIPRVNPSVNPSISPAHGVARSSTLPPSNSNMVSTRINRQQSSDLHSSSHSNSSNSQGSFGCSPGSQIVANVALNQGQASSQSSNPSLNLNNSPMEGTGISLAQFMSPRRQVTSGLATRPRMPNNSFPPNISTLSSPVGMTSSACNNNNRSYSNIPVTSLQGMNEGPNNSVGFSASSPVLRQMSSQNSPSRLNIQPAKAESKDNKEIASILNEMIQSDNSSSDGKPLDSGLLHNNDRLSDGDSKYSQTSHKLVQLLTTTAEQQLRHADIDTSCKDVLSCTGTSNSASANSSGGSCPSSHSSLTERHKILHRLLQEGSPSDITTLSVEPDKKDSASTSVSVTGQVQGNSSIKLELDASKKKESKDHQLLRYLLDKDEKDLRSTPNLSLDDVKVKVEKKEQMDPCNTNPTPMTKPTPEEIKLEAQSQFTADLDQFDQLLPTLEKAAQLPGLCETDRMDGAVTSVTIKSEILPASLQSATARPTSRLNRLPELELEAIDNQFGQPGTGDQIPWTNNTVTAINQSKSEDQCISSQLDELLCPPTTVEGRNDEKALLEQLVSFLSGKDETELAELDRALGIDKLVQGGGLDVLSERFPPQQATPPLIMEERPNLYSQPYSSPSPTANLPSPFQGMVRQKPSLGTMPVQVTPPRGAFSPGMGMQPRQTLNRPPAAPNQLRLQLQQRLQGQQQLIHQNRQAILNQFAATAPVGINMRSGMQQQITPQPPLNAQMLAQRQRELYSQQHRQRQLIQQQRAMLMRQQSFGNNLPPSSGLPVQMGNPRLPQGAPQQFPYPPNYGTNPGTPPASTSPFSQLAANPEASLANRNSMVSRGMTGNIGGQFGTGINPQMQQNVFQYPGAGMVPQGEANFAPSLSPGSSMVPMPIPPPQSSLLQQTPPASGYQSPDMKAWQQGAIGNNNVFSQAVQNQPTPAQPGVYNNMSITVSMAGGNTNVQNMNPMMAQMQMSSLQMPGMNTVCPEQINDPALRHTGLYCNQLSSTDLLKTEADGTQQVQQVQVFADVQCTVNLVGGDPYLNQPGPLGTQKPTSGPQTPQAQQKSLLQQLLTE

| Compound | EC50 [1] | EC50 [2] |
| --- | --- | --- |
| O=c1[nH]nc(-c2ccc(N3[C@@H]4CC[C@H]3C[C@@H](OCc3c(-c5ccccc5OC(F)(F)F)noc3C3CC3)C4)nc2)o1 [Example 68, 5-(6-((1R,3r,5S)-3-((5-cyclopropyl-3-(2-(trifluoromethoxy)phenyl)isoxazol-4-yl)methoxy)-8-azabicyclo[3.2.1]octan-8-yl)pyridin-3-yl)-1,3,4-oxadiazol-2(3H)-one] | 0.0264 µM | 168 nM |
| O=c1[nH]nc(-c2ccc(N3CCC(OCc4c(-c5c(Cl)cccc5Cl)noc4C4CC4)CC3)nc2)o1 [Example 37, 5-(6-(4-((5-cyclopropyl-3-(2,6-dichlorophenyl)isoxazol-4-yl)methoxy)piperidin-1-yl)pyridin-3-yl)-1,3,4-oxadiazol-2(3H)-one] | 0.0494 µM | 274 nM |
| C[C@@H]1C[C@@H](OCc2c(-c3c(Cl)cccc3Cl)noc2C2CC2)CCN1c1ccc(-c2noc(=O)[nH]2)cc1 [Example 21, 3-(4-((2R,4S)-4-((5-cyclopropyl-3-(2,6-dichlorophenyl)isoxazol-4-yl)methoxy)-2-methylpiperidin-1-yl)phenyl)-1,2,4-oxadiazol-5(4H)-one] | 0.0793 µM | 343 nM |
| O=c1[nH]nc(-c2ccc(N3CCC(OCc4c(-c5ccccc5OC(F)(F)F)noc4C4CC4)CC3)cc2)o1 [Example 51, 5-(4-(4-((5-cyclopropyl-3-(2-(trifluoromethoxy)phenyl)isoxazol-4-yl)methoxy)piperidin-1-yl)phenyl)-1,3,4-oxadiazol-2(3H)-one] | 0.325 µM | 1290 nM |
| O=c1[nH]c(-c2cc(N3CCC(OCc4c(-c5c(Cl)cccc5Cl)noc4C4CC4)CC3)no2)no1 [Example 42, 3-(3-(4-((5-cyclopropyl-3-(2,6-dichlorophenyl)isoxazol-4-yl)methoxy)piperidin-1-yl)isoxazol-5-yl)-1,2,4-oxadiazol-5(4H)-one] | 0.139 µM | 10000 nM |
| C[C@H]1C[C@H](OCc2c(-c3c(Cl)cccc3Cl)noc2C2CC2)CCN1c1ccc(-c2noc(=O)[nH]2)cc1 [Example 20, 3-(4-((2S,4R)-4-((5-cyclopropyl-3-(2,6-dichlorophenyl)isoxazol-4-yl)methoxy)-2-methylpiperidin-1-yl)phenyl)-1,2,4-oxadiazol-5(4H)-one] | 0.114 µM | 398 nM |
| O=c1[nH]c(-c2cc(N3CCC(OCc4c(-c5c(Cl)cccc5Cl)noc4C4CC4)CC3)cs2)no1 [Example 30, 3-(4-(4-((5-cyclopropyl-3-(2,6-dichlorophenyl)isoxazol-4-yl)methoxy)piperidin-1-yl)thiophen-2-yl)-1,2,4-oxadiazol-5(4H)-one] | 0.296 µM | 3620 nM |
| COc1cccc(F)c1-c1noc(C2CC2)c1COC1CCN(c2ccc(-c3noc(=O)[nH]3)cc2)CC1 [Example 28, 3-(4-(4-((5-cyclopropyl-3-(2-fluoro-6-methoxyphenyl)isoxazol-4-yl)methoxy)piperidin-1-yl)phenyl)-1,2,4-oxadiazol-5(4H)-one] | 0.149 µM | 1610 nM |
| C[C@@H]1C[C@H](OCc2c(-c3c(F)cccc3F)noc2C2CC2)CCN1c1ccc(-c2noc(=O)[nH]2)cn1 [Example 73, 3-(6-((2R,4R)-4-((5-cyclopropyl-3-(2,6-difluorophenyl)isoxazol-4-yl)methoxy)-2-methylpiperidin-1-yl)pyridin-3-yl)-1,2,4-oxadiazol-5(4H)-one] | 0.0476 µM | 350 nM |
| O=c1[nH]c(-c2n[nH]c(N3CCC(OCc4c(-c5c(Cl)cccc5Cl)noc4C4CC4)CC3)n2)no1 [Example 45, 3-(5-(4-((5-cyclopropyl-3-(2,6-dichlorophenyl)isoxazol-4-yl)methoxy)piperidin-1-yl)-1H-1,2,4-triazol-3-yl)-1,2,4-oxadiazol-5(4H)-one] | 0.61 µM | 10000 nM |
| O=c1[nH]c(-c2ccc(N3CCC(OCc4c(-c5ccccc5OC(F)(F)F)noc4C4CC4)C(F)(F)C3)cc2)no1 (stereo not shown) [Example 54, 3-(4-(4-((5-cyclopropyl-3-(2-(trifluoromethoxy)phenyl)isoxazol-4-yl)methoxy)-3,3-difluoropiperidin-1-yl)phenyl)-1,2,4-oxadiazol-5(4H)-one] | 0.0376 µM | 715 nM |
| O=c1[nH]c(-c2ccc(N3CCC(OCc4c(-c5c(Cl)cccc5Cl)noc4C4CC4)CC3)cc2)no1 [Example 3, 3-(4-(4-((5-cyclopropyl-3-(2,6-dichlorophenyl)isoxazol-4-yl)methoxy)piperidin-1-yl)phenyl)-1,2,4-oxadiazol-5(4H)-one] | 0.0036 µM and 0.0029 µM | 97 nM and 49.8 nM |
| O=c1[nH]nc(-c2ccc(N3CCC(OCc4c(-c5c(Cl)cccc5Cl)noc4C4CC4)CC3)cn2)c(=O)[nH]1 [Example 46, 6-(5-(4-((5-cyclopropyl-3-(2,6-dichlorophenyl)isoxazol-4-yl)methoxy)piperidin-1-yl)pyridin-2-yl)-1,2,4-triazine-3,5(2H,4H)-dione] | 0.0746 µM | 10000 nM |

Further molecules by falling EC50 [1], results first:

| EC50 [1] | EC50 [2] | Compound |
| --- | --- | --- |
| 0.031 µM | 2530 nM | O=c1[nH]c(-c2cnc(N3CCC(OCc4c(-c5c(Cl)cccc5Cl)noc4C4CC4)CC3)nc2)no1 [Example 5, 3-(2-(4-((5-cyclopropyl-3-(2,6-dichlorophenyl)isoxazol-4-yl)methoxy)piperidin-1-yl)pyrimidin-5-yl)-1,2,4-oxadiazol-5(4H)-one] |
| 0.0213 µM | 371 nM | O=c1[nH]c(-c2ccc(N3CCC(OCc4c(-c5ccccc5Cl)noc4C4CC4)CC3)cc2)no1 [Example 44, 3-(4-(4-((3-(2-chlorophenyl)-5-cyclopropylisoxazol-4-yl)methoxy)piperidin-1-yl)phenyl)-1,2,4-oxadiazol-5(4H)-one] |
| 0.0161 µM | 154 nM | O=c1[nH]c(-c2ccc(N3CCC(OCc4c(-c5c(Cl)cccc5Cl)noc4C4CC4)CC3)c(F)c2)no1 [Example 39, 3-(4-(4-((5-cyclopropyl-3-(2,6-dichlorophenyl)isoxazol-4-yl)methoxy)piperidin-1-yl)-3-fluorophenyl)-1,2,4-oxadiazol-5(4H)-one] |
| 0.0112 µM | 248 nM | O=c1[nH]nc(-c2ccc(N3CCC(OCc4c(-c5c(Cl)cccc5Cl)noc4C4CC4)CC3)nc2)c(=O)[nH]1 [Example 43, 6-(6-(4-((5-cyclopropyl-3-(2,6-dichlorophenyl)isoxazol-4-yl)methoxy)piperidin-1-yl)pyridin-3-yl)-1,2,4-triazine-3,5(2H,4H)-dione] |
| 0.009 µM | 94.3 nM | O=c1[nH]c(-c2ccc(N3CCC(OCc4c(-c5c(Cl)cccc5Cl)noc4C4CC4)C(F)(F)C3)cc2)no1 (stereo not shown) [Example 53, 3-(4-(4-((5-cyclopropyl-3-(2,6-dichlorophenyl)isoxazol-4-yl)methoxy)-3,3-difluoropiperidin-1-yl)phenyl)-1,2,4-oxadiazol-5(4H)-one] |
| 0.0031 µM | 27.7 nM | C[C@@H]1C[C@H](OCc2c(-c3c(Cl)cccc3Cl)noc2C2CC2)CCN1c1ccc(-c2noc(=O)[nH]2)cc1 [Example 23, 3-(4-((2R,4R)-4-((5-cyclopropyl-3-(2,6-dichlorophenyl)isoxazol-4-yl)methoxy)-2-methylpiperidin-1-yl)phenyl)-1,2,4-oxadiazol-5(4H)-one] |
| 0.0029 µM | 18.4 nM | O=c1[nH]c(-c2ccc(N3CCCC(OCc4c(-c5c(Cl)cccc5Cl)noc4C4CC4)CC3)cc2)no1 (stereo not shown) [Example 18, 3-(4-(4-((5-cyclopropyl-3-(2,6-dichlorophenyl)isoxazol-4-yl)methoxy)azepan-1-yl)phenyl)-1,2,4-oxadiazol-5(4H)-one] |
